Data set [1] can be described thus: gastrointestinal permeability using the Caco-2 cell model. Particulars: human, read-out: permeability coefficient. Type of data set: in vitro ADME. Here is the method:
(§1) Tasquinimod is a compound having high gastrointestinal permeability and high aqueous solubility. […] For a drug compound to be classified as “highly soluble” according to the BCS, the highest single therapeutic dose thereof should be completely soluble in 250 ml or less of aqueous media over the pH range of 1.2-6.8 at 37±1° C. […] Based on these properties, tasquinimod is classified as a BCS Class I compound. […] In view of the high water-solubility of tasquinimod, the low dissolution rate of tasquinimod particles in aqueous phase was completely unexpected. A low dissolution rate is susceptible of reducing the bioavailability and may pose an obstacle to an efficient oral administration of an otherwise therapeutically active compound.

In a further data set the test system is Caco-2 cell model. The description is as above. The data set is classed as in vitro ADME. Here is the method:
as §1

Data set [2] is described as follows: aqueous solubility of tasquinimod. Type of data set: physicochemical. Here is the method:
as §1

Another data set is described as follows: pKa of tasquinimod. Type of data set: physicochemical. The conditions noted are these: weak acid.
A short description of data set [3]: Biopharmaceutics Classification System (BCS) classification. The data set is classed as physicochemical. Particulars: based on permeability and solubility. Here is the method:
as §1

≈ marks a conversion by molar mass, not a printed value.

The text below walks through data of US12485095B2, “Plurality of tasquinimod particles and use thereof” (ACTIVE BIOTECH AB, priority 2021, dated 2025).

The term solubility denotes the dissolved amount per volume that the medium holds. The low end stands for a poorly soluble substance, the high end for a readily soluble substance. By pKa is commonly meant the negative logarithm of the acid dissociation constant. A low value points to a stronger acid or weaker base. On to `COc1cccc2c1c(O)c(C(=O)N(C)c1ccc(C(F)(F)F)cc1)c(=O)n2C` [tasquinimod, 4-hydroxy-5-methoxy-N, 1-dimethyl-2-oxo-N-[4-(trifluoromethyl)phenyl]-1,2-dihydroquinoline-3-carboxamide], for which, in data set [1], the Papp turned out to be 43.5 ± 0.9 ×10⁻⁶ cm/s. Moreover, in the data set on Caco-2 cell model, the “permeability ranking according to the Biopharmaceutics Classification System (BCS)” value is on record as “highly permeable”. Moreover, the results for the “solubility relative to BCS "highly soluble" cut-off value” in data set [2] (aqueous media over the pH range of 1.2-6.8 at 37±1° C.) and in data set [2] (physiological pH at 7.4) were “ten-fold” and 50 fold, respectively. The same compound gave a solubility in data set [2] (aqueous medium, pH 7.4, aqueous buffer) of 250 µg/mL (≈ 615 µM). Besides, the pKa in the data set “pKa of tasquinimod” was found to be 6.5. Besides, the BCS class entry in data set [3] was “BCS Class I”.
